# Results taken from article PMC6132687, “Stem cells are the most sensitive screening tool to identify toxicity of GATA4-targeted novel small-molecule compounds” (Archives of Toxicology, 2018).
# Legend:
# [1] = test system: hiPSC-CMs; experiment: MTT assay in hiPSC-CMs; type: cell-based, human; conditions: 24 h
# Procedure: (§1) The cells were exposed to the test compounds for 24 h and cytotoxicity was quantified with MTT and LDH assays as described previously (Talman et al. [2011]). For the determination of cell membrane integrity, 50 µl of medium from each well was transferred onto a new 96-well plate followed by addition of 50 µl of substrate solution containing 1.3 mM β-nicotinamide adenine dinucleotide, 660 µM iodonitrotetrazolium, 54 mM L(+)-lactic acid, 280 µM phenazine methosulphate and 0.2 M Tris–HCl (pH 8.0). After a 30-min incubation, the reaction was stopped by adding 50 µl of 1 M acetic acid to each well and absorbance was measured at 490 nm using Victor2 plate reader (PerkinElmer, Turku, Finland). Spontaneous LDH release was measured from untreated cells, maximal LDH release from cells lysed with 0.9% Triton X-100 and background absorbance was measured from wells without cells. After background extraction, cytotoxicity was calculated as follows: cytotoxicity (%) = [(sample − spontaneous LDH release)/(maximal LDH release − spontaneous LDH release)] × 100. For quantification of metabolic activity, 3-(4,5-dimethylthiazol-2-yl)-2,5-diphenyltetrazolium bromide (MTT) was added to the cells at a final concentration of 0.5 mg/ml followed by 2 h incubation in cell culture conditions. […] Absorbance was measured at 550 nm and absorbance at 650 nm was subtracted as background. […]
# [2] = test system: MEFs; experiment: MTT assay in MEFs; type: cell-based, mouse; conditions: 24 h, 30 µM, not statistically significant
# Procedure: as §1
# [3] = test system: NRVCs; set-up: method as in Välimäki et al. [2017]; conditions: concentrations up to 50 µM; ref Välimäki et al. [2017]; cited from earlier work
smiles,measurement,setting,value
CCN(CC)c1ccc(NC(=O)c2c(C)noc2-c2cc(C)on2)cc1 [3i-1047],increase in hiPSC-CM metabolic activity,[1],51%
CCC(=O)N(Cc1ccc(N(CC)CC)cc1)c1c(-c2ccccc2)noc1C [3i-1120],toxicity in MEFs,[2],modest toxicity
CCN(CC)c1ccc(NC(=O)c2c(-c3ccccc3)noc2C)cc1 [3i-1000],toxicity in NRVCs,[3],no toxicity
